Results published in US12378252B2, “Pyrrolopyrazole derivatives, preparation method thereof and application thereof in medicine” (SHANGHAI MEDICILON INC., priority 2019, dated 2025).
Where a name gives a salt, the structure may show the parent alone.

Target: T1, H+/K+ ATPase (Oryctolagus cuniculus, UniProt P27112)
T1 construct: The stomach tissue of the rabbit was separated; from tissue; host or cells: rabbit stomach (fundus) mucosa, membrane fraction obtained by differential and Ficoll centrifugation
Experiment: determination of compounds' inhibition of H+/K+ ATPase enzyme activity (malachite green, OD 620 nm)
Type: biochemical
Conditions: enzyme extracted from rabbit stomach tissue; pH 6.5; ATP 500 μM; 37° C.
Excerpt: Test example: determination of compounds' inhibition of H^+/K+ATPase enzyme activity
The following experiment is used to determine the inhibitory effect of the compound of the present invention on the H^+/K+ATPase enzyme activity.
1. Experimental materials
Plate reader: SpectraMax M5 (MD)
Malachite Green (Sigma Aldrich, 213020-25G)
Ammonium molybdate (Sigma Aldrich, 277908-20G)
ATP (Sigma Aldrich, A1852-1VL).
Enzyme working solution: titrating the enzyme, diluting the enzyme with buffer 1, and during the reaction, taking 5 μl of the diluted solution into 50 μl reaction system.
ATP solution: 100 mM ATP was diluted to 5 mM with no K+buffer, and 5 μl of the diluted solution was added to the 50 μl reaction system, that is, the final concentration of ATP was 500 μM.
MLG color development liquid: 0.12% MLG, 7.5% ammonium molybdate, and […] Tween-20 was mixed as 100:25:2, and adding 15 μl of the mixture into each well during detection.
Buffer 1: 50 mM Tris-HCl pH 6.5, 5 mM magnesium chloride (magnesium chloride), 10 μM valinomycin (valinomycin).
Buffer 2: 50 mM Tris-HCl pH 6.5, 5 mM magnesium chloride (magnesium chloride), 10 μM valinomycin (valinomycin), 20 mM KCl.
Homogenization buffer: 10 mmol/L Tris-HCl, pH 6.8, 0.25M sucrose (sucrose), 1 mmol/LEDTA. 7.5% Ficoll layering solution: homogenization buffer+7.5% (W/W) 400 (Ficoll 400).
3.1. H^+/K^+ ATPase enzyme extraction
(1) The stomach tissue of the rabbit was separated, and the blood was washed with tap water, food residue.
(2) The fundus portion was thoroughly washed with pre-cooled NaCl solution to remove surface mucus.
(3) The stripped mucosa was filled into a sample bag or a 50 ml centrifuge tube, and quickly freezing in a liquid nitrogen tank.
(4) The tissue was removed, minced with surgical scissors, and a pre-cooled homogenization buffer (4 ml/g tissue) was added and homogenized in a tissue homogenizer for 2 to 10 minutes.
(5) After homogenization, if there were larger tissue particles, they could be removed by centrifugation (600 g, 10 min), and then the supernatant was transferred to a clean centrifuge tube. After centrifugation at 20000 g for 30 minutes, then the supernatant was transferred to a clean centrifuge tube at 100000 g for 90 minutes and the precipitate was collected.
(6) Resuspending the precipitate with homogenization buffer, blowing uniformly, adding 7.5% Ficoll layering solution at equal ratio, centrifuging at 100000 g for 90 minutes, and collecting the precipitate.
(7) Resuspending the precipitate with homogenization buffer, blowing uniformly, and the protein concentration was measured by Bradford. Freezing in tubes at −80° C. for later use.
3.2. H^+/K^+ ATPase activity experiment
(1) Adding 35 μl of reaction buffer to each experimental well, and then added 35 μl of buffer 1.
(2) Adding 5 μl buffer 1 containing 10% DMSO to the whole enzyme and buffer well.
(3) Adding 5 μl of 10× compound working solution to the compound well and mixing well.
(4) Adding 5 of buffer 1 to the buffer well.
(5) Adding 5 μl of 10× enzyme working solution to the remaining wells, mixing and incubating at 37° C. for 30 minutes.
(6) Adding 5 μl of 10XATP working solution to all experimental wells, and incubating at 37° C. for 20 min.
(7) Adding 15 μl MLG chromogenic solution to all experimental wells, and uniformly mixing and incubating at room temperature for 5-30 min.
(8) The reading number of 620 nm was detected by an M5 instrument.
The inhibition rate is calculated with the following formula: Inhibition rate (IC50)=[OD (sample well)−OD (full enzyme well containing potassium chloride)]/[(OD (full enzyme well containing potassium chloride)−(OD (full enzyme well without potassium chloride Enzyme hole)]×100%

T1 sequence (P27112 whole entry): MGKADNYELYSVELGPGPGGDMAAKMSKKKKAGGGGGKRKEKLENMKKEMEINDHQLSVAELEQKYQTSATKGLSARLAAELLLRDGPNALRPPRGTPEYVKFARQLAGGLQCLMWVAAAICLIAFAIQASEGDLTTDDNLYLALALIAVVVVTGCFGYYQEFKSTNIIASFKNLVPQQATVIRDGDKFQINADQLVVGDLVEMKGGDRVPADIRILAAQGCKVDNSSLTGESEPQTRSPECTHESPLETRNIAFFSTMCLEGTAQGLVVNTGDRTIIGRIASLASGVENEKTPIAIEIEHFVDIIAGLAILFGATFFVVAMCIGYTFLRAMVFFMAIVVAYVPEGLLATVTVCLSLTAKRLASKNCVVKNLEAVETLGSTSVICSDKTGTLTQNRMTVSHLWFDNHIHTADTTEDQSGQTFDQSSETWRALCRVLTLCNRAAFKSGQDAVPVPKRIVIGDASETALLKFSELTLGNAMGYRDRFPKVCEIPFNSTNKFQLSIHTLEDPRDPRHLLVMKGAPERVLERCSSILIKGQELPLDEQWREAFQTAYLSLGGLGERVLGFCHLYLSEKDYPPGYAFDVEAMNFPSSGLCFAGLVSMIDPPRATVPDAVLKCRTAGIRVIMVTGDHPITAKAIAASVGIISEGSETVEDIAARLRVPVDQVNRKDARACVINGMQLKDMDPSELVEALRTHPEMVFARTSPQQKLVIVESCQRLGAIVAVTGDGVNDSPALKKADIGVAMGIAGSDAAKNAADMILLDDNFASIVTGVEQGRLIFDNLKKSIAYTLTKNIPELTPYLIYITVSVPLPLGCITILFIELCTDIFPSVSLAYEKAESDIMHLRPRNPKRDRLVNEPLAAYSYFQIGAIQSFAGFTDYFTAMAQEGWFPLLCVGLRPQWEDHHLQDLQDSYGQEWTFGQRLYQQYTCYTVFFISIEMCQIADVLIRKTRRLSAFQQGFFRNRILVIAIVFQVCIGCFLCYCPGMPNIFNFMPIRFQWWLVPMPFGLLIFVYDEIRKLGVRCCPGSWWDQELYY
T1 sequence (P18597 whole entry partner): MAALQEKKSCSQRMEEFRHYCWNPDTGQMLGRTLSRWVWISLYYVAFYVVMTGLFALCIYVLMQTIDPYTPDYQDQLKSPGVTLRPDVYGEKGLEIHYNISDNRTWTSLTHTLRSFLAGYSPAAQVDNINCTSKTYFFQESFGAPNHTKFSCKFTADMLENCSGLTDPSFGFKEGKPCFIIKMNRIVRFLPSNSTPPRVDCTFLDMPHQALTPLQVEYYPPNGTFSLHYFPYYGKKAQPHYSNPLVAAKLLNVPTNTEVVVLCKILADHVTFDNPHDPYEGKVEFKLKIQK

SMILES | IC50
CN1Cc2nn(Cc3cccc(C(=O)NC4CC4)c3)c(-c3ccccc3F)c2C1 [Example 4, N-cyclopropyl-3-((3-(2-fluorophenyl)-5-methyl-5,6-dihydropyrrolo[3,4-c]pyrazole-2(4H)-Yl)methyl)benzamide] | 539 nM
Cc1ccccc1-c1c2c(nn1Cc1cccc(C(=O)OC(C)(C)C)c1)CN(C)C2 [Example 8, 3-((5-Methyl-3-(o-tolyl)-5,6-dihydropyrrolo[3,4-c]pyrazole-2(4H)-yl)methyl) benzene Tert-butyl formate] | 589 nM
COC(=O)c1cccc(Cn2nc3c(c2-c2ccccc2F)CN(C)C3)c1 [Example 1, 3-((3-(2-fluorophenyl)-5-methyl-5,6-dihydropyrrolo[3,4-c]pyrazole-2(4H)-yl)methyl)benzoic acid ester] | 77.6 nM
CCOC(=O)c1cccc(Cn2nc3c(c2-c2ccccc2F)CN(C)C3)c1 [Example 3, 3-((3-(2-fluorophenyl)-5-methyl-5,6-dihydropyrrolo[3,4-c]pyrazole-2(4H)-yl)methyl) ethyl benzoate] | 90.4 nM
COC(=O)c1cccc(Cn2nc3c(c2-c2ccccc2C)CN(C)C3)c1 [Example 6, 3-((5-methyl-3-(o-tolyl)-5,6-dihydropyrrolo[3,4-c]pyrazole-2(4H)-yl)methyl) Methyl benzoate] | 36.6 nM
CN1Cc2nn(Cc3cccc(C(=O)OC(C)(C)C(N)=O)c3)c(-c3ccccc3F)c2C1 [Example 5, 1-amino-2-methyl-1-oxopropan-2-yl-3-((3-(2-fluorophenyl)-5-methyl-5,6-dihydropyrrolo [3,4-c]pyrazole-2(4H)-yl)methyl)benzoate] | 225 nM

Continued by falling IC50, values first:

IC50 | SMILES
96.8 nM | CCCCOC(=O)c1cccc(Cn2nc3c(c2-c2ccccc2F)CN(C)C3)c1 [Example 2, 3-((3-(2-fluorophenyl)-5-methyl-5,6-dihydropyrrolo [3,4-c]pyrazole-2(4H)-yl)methyl)butyl benzoate]
61.4 nM | COC(=O)c1cccc(Cn2nc3c(c2-c2ccc(F)cc2F)CN(C)C3)c1 [Example 9, 3-((3-(2,4-Difluorophenyl)-5-methyl-5,6-dihydropyrrolo [3,4-c]pyrazole-2(4H)-yl) Methyl) methyl benzoate]
39 nM | COC(=O)c1cc(Cn2nc3c(c2-c2ccccc2C)CN(C)C3)ccc1F [Example 7, 2-Fluoro-5-((5-methyl-3-(o-tolyl)-5,6-dihydropyrrole [3,4-c]pyrazole-2 (4H)-yl)methane Yl) methyl benzoate]
